In assay [1] the target is T1, Human 11β-HSD1 (Homo sapiens, UniProt P28845). As to the kind of experiment: 11β-HSD1 HEK assay (whole HEK 293 cells stably transfected with HSD11B1, SPA). It counts as cell-based. More on the design: expressed in transfected cells; host or cells: HEK 293. As to conditions: HEK293, read-out: % INHIBITION of Human 11 β-HSD1 at 10 μM (HEK). As for the experimental part: 11β-HSD1 HEK Assay Protocol (Cell Based Assay)
11β-HSD1 activity is measured in whole HEK 293 cells stably transfected with the HSD11B1 gene. Cells are incubated in 96-well microplates in the presence of tritiated substrate. Enzyme activity is determined by measuring the amount of tritated product by scintillation proximity assay (SPA). Assay plates contain internal high and low controls to allow calculation of percentage inhibition.
2. When the cells are 80% confluent the medium is removed from each well. 100 μl fresh, serum-free, medium containing ^3H-cortisone and test compound in 1% DMSO is added to each well*. Control wells are also dispensed.
3. The plate is incubated at […] for the required time period.
4. 50 μl of media is removed from each well and transferred to a microplate containing 100 μl of a pre-incubated mixture of anti-cortisol antibody and SPA bead. The mixture is incubated with gentle shaking until equilibrium is reached, before transferring to a scintillation counter to establish the enzyme activity in each sample.
10 μl of compound is dispensed into each well of a 96-well microplate in 10% DMSO at 100 μM concentration. 90 μl media containing ^3H-cortisone is added to each well. The compound/media/substrate mixture is then transferred to the assay plate containing the cells.

The target of assay [2] is T1, Human 11β-HSD1. As to the kind of experiment: 11β-HSD1 HTRF assay (human liver microsome fractions, cortisol by HTRF). It counts as biochemical. As to conditions: 10 μM compound; human liver microsomes. How it is done:
11β-HSD1 HTRF Assay Protocol
The 11β-HSD Type 1 assay was carried out at room temperature in 96 well microtitre plates in a total volume of 40 μl. Assay buffer contained 30 mM Tris.HCl, 1 mM EDTA, pH 7.2. Inhibitor compounds were tested at varying concentrations at a final Dimethyl Sulphoxide concentration of 1%. Compounds were usually tested at 10 μM. The substrate mixture contained cortisone, NADPH and glucose-6-phosphate at final concentrations of 1 μM, 180 μM and 1 mM respectively. Assays were started by the addition of 10p1 human liver microsome fractions, 20 mg per ml protein, containing 11β-HSD Type 1, diluted 1 to 40 prior to use. Following mixing microtitre plates were shaken for 30 minutes. Reactions were stopped by the addition of 10 μl 1 mM Glyccheritinnic acid solution. Production of Cortisol was measured by Homogenous Time Resolved Fluorescence using a cortisol assay kit; Cisbio International Cortisol HTRF kit (62CORPEB), following the manufacturer's protocol.
Background: In TR-FRET formats the signal depends on donor and acceptor labels being close together.

The target in assay [3] is T1, Human 11β-HSD1. As to the kind of experiment: 11β-HSD1 HEK assay (whole HEK 293 cells stably transfected with HSD11B1, SPA). It counts as cell-based. More on the design: expressed in transfected cells; host or cells: HEK 293. As to conditions: HEK293.

T1 sequence (P28845 whole entry): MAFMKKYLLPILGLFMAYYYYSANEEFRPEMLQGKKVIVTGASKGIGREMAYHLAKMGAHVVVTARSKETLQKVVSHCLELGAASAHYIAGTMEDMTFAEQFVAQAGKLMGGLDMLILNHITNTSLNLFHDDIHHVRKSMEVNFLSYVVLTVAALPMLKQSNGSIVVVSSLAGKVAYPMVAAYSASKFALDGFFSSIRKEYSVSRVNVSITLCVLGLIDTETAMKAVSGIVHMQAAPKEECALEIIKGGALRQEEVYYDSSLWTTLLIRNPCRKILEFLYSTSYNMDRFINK

A word on the inhibition: it is the change of the read-out against control, counted positive when it falls. As for `O=S(=O)(NC12CC3CC(CC(C3)C1)C2)c1ccc(-c2ccccc2)cc1` [compound 1344], the inhibition at 10 µM at Human 11β-HSD1 [1] and against Human 11β-HSD1 [2] was 20 to 60% in each case.
On to `CCCc1ccc(S(=O)(=O)NC23CC4CC(CC(C4)C2)C3)cc1` [compound 1341], for which the inhibition at 10 µM at Human 11β-HSD1 [1] and at Human 11β-HSD1 [2] was 20 to 60% throughout.
For the compound `Cc1ccc(SCC(=O)C23CC4CC(CC(C4)C2)C3)cc1` [compound 1537], the inhibition at 10 µM on Human 11β-HSD1 [1] and at Human 11β-HSD1 [2] was over 60% each time.
For the compound `O=C(COc1ccc(-c2ccccc2)cc1)C12CC3CC(CC(C3)C1)C2` [compound 1567], the inhibition at 10 µM on Human 11β-HSD1 [1] and at Human 11β-HSD1 [2] was over 60% in each case.
In the case of `Cc1ccc(OCC(=O)C23CC4CC(CC(C4)C2)C3)cc1` [compound 1619], the inhibition at 10 µM on Human 11β-HSD1 [1] and on Human 11β-HSD1 [2] was over 60% in each case.
For the compound `CCCc1ccc(S(=O)(=O)NCC23CC4CC(CC(C4)C2)C3)cc1` [compound 1368], the inhibition at 10 µM at Human 11β-HSD1 [1] is 20 to 60%; on Human 11β-HSD1 [2], over 60%.
Regarding `O=C(NCc1ccccn1)C12CC3CC(CC(C3)C1)C2` [compound 1540], the inhibition at 10 µM is 20 to 60% on Human 11β-HSD1 [1] and over 60% on Human 11β-HSD1 [2].
In the same order, the values of `O=C(NCCc1cccs1)C12CC3CC(CC(C3)C1)C2` [compound 1375] are over 60% and over 60%.
For the compound `O=C(COc1cc(Cl)ccc1Cl)C12CC3CC(CC(C3)C1)C2` [compound 1618], the inhibition at 10 µM at Human 11β-HSD1 [1] and at Human 11β-HSD1 [2] was over 60% in each case.
On to `Cn1cccc1CNC(=O)C12CC3CC(CC(C3)C1)C2` [compound 1578], for which the inhibition at 10 µM at Human 11β-HSD1 [1] and at Human 11β-HSD1 [2] was over 60% each time.
In the case of `O=C(NCc1cccs1)C12CC3CC(CC(C3)C1)C2` [compound 1374], the inhibition at 10 µM on Human 11β-HSD1 [1] and at Human 11β-HSD1 [2] was over 60% throughout.
For the compound `O=C(COc1ccc(Cl)cc1)C12CC3CC(CC(C3)C1)C2` [compound 1610], the inhibition at 10 µM at Human 11β-HSD1 [1] and against Human 11β-HSD1 [2] was over 60% in each case.
With `O=C(C[S+]([O-])c1cc(Cl)ccc1Cl)C12CC3CC(CC(C3)C1)C2` (centres unmarked) [compound 1563], the inhibition at 10 µM at Human 11β-HSD1 [1] and against Human 11β-HSD1 [2] was over 60% each time.
For `O=S(=O)(Cc1cccc(Cl)c1)NC12CC3CC(CC(C3)C1)C2` [compound 1500], the inhibition at 10 µM is under 20% on Human 11β-HSD1 [1] and 20 to 60% on Human 11β-HSD1 [2].
In the same order, the values of `Cc1ccc(S(=O)(=O)CC(=O)C23CC4CC(CC(C4)C2)C3)cc1` [compound 1562] are over 60% and over 60%.
In the case of `O=C(NCCN1CCCCC1)C12CC3CC(CC(C3)C1)C2` [compound 1598], the inhibition at 10 µM at Human 11β-HSD1 [1] and on Human 11β-HSD1 [2] was over 60% throughout.
Regarding `Cc1cnc(CNC(=O)C23CC4CC(CC(C4)C2)C3)cn1` [compound 1545], the inhibition at 10 µM at Human 11β-HSD1 [1] is 20 to 60%; at Human 11β-HSD1 [2], over 60%.
Regarding `O=C(CSCc1ccc(Cl)cc1)C12CC3CC(CC(C3)C1)C2` [compound 1621], the inhibition at 10 µM on Human 11β-HSD1 [1] and against Human 11β-HSD1 [2] was over 60% throughout.
For `O=C(COCc1ccc(Cl)cc1)C12CC3CC(CC(C3)C1)C2` [compound 1626], the inhibition at 10 µM on Human 11β-HSD1 [1] is 20 to 60%; on Human 11β-HSD1 [2], over 60%.
For the compound `NC(=O)c1ccc(COCC(=O)C23CC4CC(CC(C4)C2)C3)cc1` [Compound 17], the inhibition at 1 µM against Human 11β-HSD1 [3] worked out at 63%.
In the case of `Cc1nc2c(Cl)c(NC(=O)C34CC5CC(CC(C5)C3)C4)ccc2s1` [compound 1373], the inhibition at 10 µM is over 60% at Human 11β-HSD1 [1] and 20 to 60% against Human 11β-HSD1 [2].
In the case of `O=C(NCc1cccnc1)C12CC3CC(CC(C3)C1)C2` [compound 1542], the inhibition at 10 µM on Human 11β-HSD1 [1] and against Human 11β-HSD1 [2] was over 60% each time.
Take `O=C(NCCc1cccnc1)C12CC3CC(CC(C3)C1)C2` [compound 1543]: the inhibition at 10 µM at Human 11β-HSD1 [1] is under 20%; against Human 11β-HSD1 [2], over 60%.
As to `O=C(NCCc1ccccn1)C12CC3CC(CC(C3)C1)C2` [compound 1541], the inhibition at 10 µM at Human 11β-HSD1 [1] and on Human 11β-HSD1 [2] was over 60% throughout.
Regarding `O=C(CS(=O)(=O)c1ccc(Cl)cc1)C12CC3CC(CC(C3)C1)C2` [compound 1539], the inhibition at 10 µM at Human 11β-HSD1 [1] is 20 to 60%; at Human 11β-HSD1 [2], over 60%.
In the same order, the values of `O=C(NCc1ccco1)C12CC3CC(CC(C3)C1)C2` [compound 1579] are over 60% and over 60%.
For the compound `O=S(=O)(NCC12CC3CC(CC(C3)C1)C2)c1cccs1` [compound 1575], the results for the inhibition at 10 µM at Human 11β-HSD1 [1] and on Human 11β-HSD1 [2] were under 20% and over 60%, respectively.
In the same order, the values of `O=C(CNc1ccc(Cl)cc1)C12CC3CC(CC(C3)C1)C2` [compound 1535] are over 60% and over 60%.
In the same order, the values of `CN1CCCC1CCNC(=O)C12CC3CC(CC(C3)C1)C2` (centres unmarked) [compound 1597] are under 20% and over 60%.
On the same counts, the results for `COc1ccc(OCC(=O)C23CC4CC(CC(C4)C2)C3)cc1OC` [compound 1568] are over 60% and over 60%.
As to `Cc1ccc(-c2noc(C34CC5CC(CC(C5)C3)C4)n2)cc1` [compound 1599], the inhibition at 10 µM on Human 11β-HSD1 [1] and against Human 11β-HSD1 [2] was 20 to 60% throughout.
`CC(=O)Nc1ccc(OCC(=O)C23CC4CC(CC(C4)C2)C3)cc1` [compound 1569]: the inhibition at 10 µM at Human 11β-HSD1 [1] and on Human 11β-HSD1 [2] was over 60% in each case.
In the case of `COc1ccc(NC(=O)C23CC4CC(CC(C4)C2)C3)cn1` [compound 1544], the inhibition at 10 µM was 20 to 60% on Human 11β-HSD1 [1] and over 60% on Human 11β-HSD1 [2].
In the case of `Cc1nc2c(NC(=O)C34CC5CC(CC(C5)C3)C4)c(C)ccc2s1` [compound 1372], the inhibition at 10 µM on Human 11β-HSD1 [1] and on Human 11β-HSD1 [2] was 20 to 60% in each case.
Consider `O=C(NCCc1c[nH]c2ccccc12)C12CC3CC(CC(C3)C1)C2` [compound 1581], for which the inhibition at 10 µM at Human 11β-HSD1 [1] and against Human 11β-HSD1 [2] was over 60% each time.
With `O=S(=O)(NC1C2CC3CC(C2)CC1C3)c1cccs1` (centres unmarked) [compound 1574], the inhibition at 10 µM at Human 11β-HSD1 [1] is 20 to 60%; against Human 11β-HSD1 [2], over 60%.
